These results are taken from patent publication US11753407B2, “Compounds for treating spinal muscular atrophy” (PTC Therapeutics, Inc., priority 2012, dated 2023).

The subject of data set [1] is SMN2 minigene mRNA (SMN2-A minigene) in HEK293H cells. Nature of the data set: SMN2 minigene mRNA splicing RT-qPCR assay in cultured cells. Format: cell-based, human. The note with it: Homo sapiens, HEK293-H; concentration increasing full length SMN2 mRNA 1.5-fold relative to vehicle-treated cells; HEK293H cells with SMN2-A minigene, 24 hours, 7-point concentration data; read-out: EC1.5x for production of full length SMN2 mRNA. The method, boiled down:
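Potency reflects the concentration that lifts full-length SMN2 minigene mRNA 1.5-fold above vehicle in stably transfected HEK293H cells after 24 h of treatment. Transcript abundance came from RT-qPCR as (1+E)^−Ct, normalized to GAPDH; endogenous SMN1/SMN2 are not detected.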
(Quantitative PCR measures a nucleic acid by following its amplification.)

The subject of data set [2] is Smn protein in SMA patient fibroblast cells (GM03813). In words: Smn protein assay in cultured cells (SMN HTRF). In kind it is cell-based, human. The note with it: SMA patient fibroblast cells, 48 hours; for EC1.5x for Smn protein expression: 7-point concentration curve, SMN HTRF, concentration producing 1.5 times Smn protein vs DMSO vehicle control; for maximum fold (Fold) increase of Smn protein: 7-point concentration data, fold relative to vehicle control. The method, boiled down:
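Smn protein abundance in treated SMA fibroblasts was measured by HTRF after 48 h compound exposure. The reported EC1.5× is the concentration producing 1.5 times vehicle Smn levels.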
(TR-FRET usually uses a lanthanide donor and a delayed reading to cut background.)

Molecules are shown by their SMILES. Where only a bound is given, the exact number is not on record here.

Regarding `CCN1CCN(c2ccc3nc(-c4cc5cc(C)nc(C)c5o4)cc(=O)n3c2)CC1` [Compound 601, 2-(5,7-dimethylfuro[2,3-c]pyridin-2-yl)-7-(4-ethylpiperazin-1-yl)-4H-pyrido[1,2-a]pyrimidin-4-one], the melting point (commonly the temperature, or range, at which the solid turns liquid) lay in the range of 202 to 204 °C. Moreover, in data set [1], the EC (1.5-fold increase) was < 0.1 µM. Moreover, in data set [2], the “EC1.5x for Smn protein expression” value was “*** (an EC1.5× between >0.3 μM and ≤1 μM is indicated by three stars (***))”; the “maximum fold (Fold) increase of Smn protein” value (from here on “maximum fold (Fold) increase”) was “**** (a fold increase between >1.5 and ≤1.65 is indicated by four stars (****))”.

On to `Cc1cn2cc(-c3cc(=O)n4cc(N5CCN[C@H](C)C5)ccc4n3)cc(C(F)(F)F)c2n1` [Compound 734, 7-[(3R)-3-methylpiperazin-1-yl]-2-[2-methyl-8-(trifluoromethyl)imidazo[1,2-a]pyridin-6-yl]-4H-pyrido[1,2-a]pyrimidin-4-one], for which the melting point is 303 to 306 °C. Moreover, the EC (1.5-fold increase) in data set [1] was < 0.1 µM. Further, in data set [2], the “EC1.5x for Smn protein expression” value is “**** (an EC1.5x≤0.3 μM is indicated by four stars (****))” and the “maximum fold (Fold) increase” value is recorded as “***** (a fold increase >1.65 is indicated by five stars (*****))”.

Compound `COc1ccc(-c2cc(=O)n3cc(N4CC[C@@H](N(C)C)C4)ccc3n2)cc1F` [Compound 282, 7-[(3R)-3-(dimethylamino)pyrrolidin-1-yl]-2-(3-fluoro-4-methoxyphenyl)-4H-pyrido[1,2-a]pyrimidin-4-one] displayed a melting point of 188 to 191 °C. Moreover, the EC (1.5-fold increase) in data set [1] was 0.3 to 1 µM. The “maximum fold (Fold) increase” value in data set [2] is “** (a fold increase between >1.2 and ≤1.35 is indicated by two stars (**))”.

The compound `Cc1nc(C2CCNCC2)cn2c(=O)cc(-c3ccc4nn(C)cc4c3)nc12` [Compound 796, 9-methyl-2-(2-methyl-2H-indazol-5-yl)-7-(piperidin-4-yl)-4H-pyrazino[1,2-a]pyrimidin-4-one] came in with a melting point of 229 to 235 °C. Moreover, the EC (1.5-fold increase) in data set [1] was < 0.1 µM. Moreover, in data set [2], the “EC1.5x for Smn protein expression” value is listed as “**** (an EC1.5x≤0.3 μM is indicated by four stars (****))” and the “maximum fold (Fold) increase” value is on record as “***** (a fold increase >1.65 is indicated by five stars (*****))”.

`COc1ccc(-c2cc(=O)n3cc(C4CCN(C)CC4)cc(C)c3n2)cc1F` [Compound 329, 2-(3-fluoro-4-methoxyphenyl)-9-methyl-7-(1-methylpiperidin-4-yl)-4H-pyrido[1,2-a]pyrimidin-4-one] yielded a melting point of 198 to 203 °C. For the same compound, the EC (1.5-fold increase) in data set [1] was < 0.1 µM. Further, in data set [2], the “EC1.5x for Smn protein expression” value is “** (an EC1.5× between >1 μM and ≤3 μM is indicated by two stars (**))”; the “maximum fold (Fold) increase” value is “**** (a fold increase between >1.5 and ≤1.65 is indicated by four stars (****))”.

Compound `COc1ccc(-c2cc(=O)n3cc(C4=CCN(C)CC4)ccc3c2)cc1OC` [Cpd 249, 2-(3,4-dimethoxyphenyl)-7-(1-methyl-1,2,3,6-tetrahydropyridin-4-yl)-4H-quinolizin-4-one] came in with a melting point of 194 to 196 °C. For the same compound, the EC (1.5-fold increase) in data set [1] was in the range of 0.3 to 1 µM. Besides, in data set [2], the “maximum fold (Fold) increase” value was “* (A maximum fold increase of ≤1.2 is indicated by one star (*))”.

As to `CCN1CCC(c2ccc3nc(-c4cc5c(C)nc(C)cn5n4)cc(=O)n3c2)CC1` [Compound 454, 2-(4,6-dimethylpyrazolo[1,5-a]pyrazin-2-yl)-7-(1-ethylpiperidin-4-yl)-4H-pyrido[1,2-a]pyrimidin-4-one], the melting point was 170 to 172 °C. Also, in data set [1], the EC (1.5-fold increase) was < 0.1 µM. Besides, in data set [2], the “EC1.5x for Smn protein expression” value was “**** (an EC1.5x≤0.3 μM is indicated by four stars (****))” and the “maximum fold (Fold) increase” value is recorded as “***** (a fold increase >1.65 is indicated by five stars (*****))”.

For the compound `CNC1CCN(c2cc(C)c3nc(-c4cc5c(C)nc(C)cn5n4)cc(=O)n3c2)CC1` [Compound 610, 2-(4,6-dimethylpyrazolo[1,5-a]pyrazin-2-yl)-9-methyl-7-[4-(methylamino)piperidin-1-yl]-4H-pyrido[1,2-a]pyrimidin-4-one], the melting point is 218 to 227 °C. Moreover, the EC (1.5-fold increase) in data set [1] is < 0.1 µM. In data set [2], the “EC1.5x for Smn protein expression” value is “**** (an EC1.5x≤0.3 μM is indicated by four stars (****))” and the “maximum fold (Fold) increase” value is “***** (a fold increase >1.65 is indicated by five stars (*****))”.

For `COc1ccc(-c2cc(=O)n3cc(N4CCNCC4)ccc3n2)cc1[N+](=O)[O-]` [Compound 167, 2-(4-methoxy-3-nitrophenyl)-7-(piperazin-1-yl)-4H-pyrido[1,2-a]pyrimidin-4-one], the melting point lay in the range of 183 to 187 °C. In addition, the EC (1.5-fold increase) in data set [1] was < 0.1 µM. Moreover, in data set [2], the “EC1.5x for Smn protein expression” value is “** (an EC1.5× between >1 μM and ≤3 μM is indicated by two stars (**))”; the “maximum fold (Fold) increase” value was “*** (a fold increase between >1.35 and ≤1.5 is indicated by three stars (***))”.

For `C[C@H]1CN(c2ccc3nc(-c4ccc5c(cnn5C)c4)cc(=O)n3c2)CCN1` [Compound 553, 2-(1-methyl-1H-indazol-5-yl)-7-[(3S)-3-methylpiperazin-1-yl]-4H-pyrido[1,2-a]pyrimidin-4-one], the melting point is 206 to 208 °C. Also, the EC (1.5-fold increase) in data set [1] lay in the range of 0.1 to 0.3 µM. Moreover, in data set [2], the “EC1.5x for Smn protein expression” value is on record as “**** (an EC1.5x≤0.3 μM is indicated by four stars (****))” and the “maximum fold (Fold) increase” value is given as “***** (a fold increase >1.65 is indicated by five stars (*****))”.

As to `Cc1nc2cc(-c3cc(=O)n4cc(N5C[C@@H](C)N[C@@H](C)C5)ccc4n3)ccc2s1` [Compound 175, 7-[(3R,5S)-3,5-dimethylpiperazin-1-yl]-2-(2-methyl-1,3-benzothiazol-5-yl)-4H-pyrido[1,2-a]pyrimidin-4-one], the melting point was 208 to 212 °C. The EC (1.5-fold increase) in data set [1] is < 0.1 µM. In data set [2], the “EC1.5x for Smn protein expression” value was “*** (an EC1.5× between >0.3 μM and ≤1 μM is indicated by three stars (***))”; the “maximum fold (Fold) increase” value was “**** (a fold increase between >1.5 and ≤1.65 is indicated by four stars (****))”.

For the compound `O=c1cc(-c2cccc([N+](=O)[O-])c2)nc2ccc(N3CCNCC3)cn12` [Compound 62, 2-(3-nitrophenyl)-7-(piperazin-1-yl)-4H-pyrido[1,2-a]pyrimidin-4-one], the melting point is 175 °C (dec.). Moreover, the EC (1.5-fold increase) in data set [1] fell in the range of 0.1 to 0.3 µM. Besides, in data set [2], the “EC1.5x for Smn protein expression” value is “*** (an EC1.5× between >0.3 μM and ≤1 μM is indicated by three stars (***))”; the “maximum fold (Fold) increase” value is listed as “***** (a fold increase >1.65 is indicated by five stars (*****))”.

For `CCN1CC=C(c2ccc3nc(-c4ccc5nc(C)sc5c4)cc(=O)n3c2)CC1` [Compound 396, 7-(1-ethyl-1,2,3,6-tetrahydropyridin-4-yl)-2-(2-methyl-1,3-benzothiazol-6-yl)-4H-pyrido[1,2-a]pyrimidin-4-one], the melting point is 128 to 130 °C. Moreover, the EC (1.5-fold increase) in data set [1] lay within 0.1 to 0.3 µM. Moreover, in data set [2], the “EC1.5x for Smn protein expression” value was “*** (an EC1.5× between >0.3 μM and ≤1 μM is indicated by three stars (***))”; the “maximum fold (Fold) increase” value is “**** (a fold increase between >1.5 and ≤1.65 is indicated by four stars (****))”.

Consider `COc1ccc(-c2cc(=O)n3cc(NC4CCNCC4)cc(F)c3n2)cc1OC` [Compound 48, 2-(3,4-dimethoxyphenyl)-9-fluoro-7-(piperidin-4-ylamino)-4H-pyrido[1,2-a]pyrimidin-4-one], for which the melting point was 224 to 226 °C. In data set [1], the EC (1.5-fold increase) was 3 to 30 µM. Further, in data set [2], the “maximum fold (Fold) increase” value was “* (A maximum fold increase of ≤1.2 is indicated by one star (*))”.

`COc1ccc(-c2cc(=O)n3cc(C4=CCN(C)CC4)ccc3n2)cc1OC` [Cpd 188, 2-(3,4-dimethoxyphenyl)-7-(1-methyl-1,2,3,6-tetrahydropyridin-4-yl)-4H-pyrido[1,2-a]pyrimidin-4-one] gave a melting point of 165 to 168 °C. In data set [1], the EC (1.5-fold increase) is 0.1 to 0.3 µM. In addition, in data set [2], the “EC1.5x for Smn protein expression” value is “*** (an EC1.5× between >0.3 μM and ≤1 μM is indicated by three stars (***))”; the “maximum fold (Fold) increase” value is “***** (a fold increase >1.65 is indicated by five stars (*****))”.

In the case of `Cc1cn2cc(-c3ccc4nc(C5CCNCC5)cc(=O)n4c3)ccc2n1` [Compound 409, 7-(2-methylimidazo[1,2-a]pyridin-6-yl)-2-(piperidin-4-yl)-4H-pyrido[1,2-a]pyrimidin-4-one], the melting point was 255 to 258 °C. In addition, in data set [1], the EC (1.5-fold increase) is < 0.1 µM. Moreover, in data set [2], the “EC1.5x for Smn protein expression” value is on record as “**** (an EC1.5x≤0.3 μM is indicated by four stars (****))” and the “maximum fold (Fold) increase” value was “***** (a fold increase >1.65 is indicated by five stars (*****))”.

`Cc1nc(C2=CCNCC2)cn2c(=O)cc(-c3ccc4nn(C)cc4c3)nc12` [Compound 791, 9-methyl-2-(2-methyl-2H-indazol-5-yl)-7-(1,2,3,6-tetrahydropyridin-4-yl)-4H-pyrazino[1,2-a]pyrimidin-4-one]: the melting point was > 240 °C (dec.). Besides, the EC (1.5-fold increase) in data set [1] is < 0.1 µM. In data set [2], the “EC1.5x for Smn protein expression” value is on record as “**** (an EC1.5x≤0.3 μM is indicated by four stars (****))” and the “maximum fold (Fold) increase” value is “***** (a fold increase >1.65 is indicated by five stars (*****))”.
